Values joined by “and” are separate entries in the source; they are usually repeats but may differ in a detail not shown here. Equal entries are not always repeated. Structures can show the parent of a compound that is named as a salt.
Test system: not given
Test: not given
Settings: not given

In the case of `COCCn1cc(C(=O)N2CCC(c3cc(CN)ccc3F)CC2)c2c(C(=O)N3CCOCC3)cccc21.Cl` [Example 59, [3-[4-(5-Aminomethyl-2-fluoro-phenyl)-piperidine-1-carbonyl]-1-(2-methoxy-ethyl)-1H-indol-4-yl]-morpholin-4-yl-methanone hydrochloride], the melting point is reported as 142 to 147 °C.

Test system: β-tryptase
Test: not given
Settings: inhaled; bronchial allergen challenge; cited from earlier work

For `NC(=O)[C@@H]1CCCN1C(=O)[C@H](CCCN=C(N)N)NC(=O)c1ccc2ccccc2c1O` [APC-366], the “Clinical proof-of-concept for asthma” value is listed as “Clinical proof-of-concept”.

Same assay, conditions: inhaled; cited from earlier work

For `NC(=O)[C@@H]1CCCN1C(=O)[C@H](CCCN=C(N)N)NC(=O)c1ccc2ccccc2c1O` [APC-366], the “development outcome / tolerability” value is given as “terminated due to bronchial irritation”.

Target: T1, recombinant human beta tryptase (Homo sapiens, UniProt P20231)
T1 construct: made in house; host or cells: yeast cells
T1 sequence (P20231 31-275): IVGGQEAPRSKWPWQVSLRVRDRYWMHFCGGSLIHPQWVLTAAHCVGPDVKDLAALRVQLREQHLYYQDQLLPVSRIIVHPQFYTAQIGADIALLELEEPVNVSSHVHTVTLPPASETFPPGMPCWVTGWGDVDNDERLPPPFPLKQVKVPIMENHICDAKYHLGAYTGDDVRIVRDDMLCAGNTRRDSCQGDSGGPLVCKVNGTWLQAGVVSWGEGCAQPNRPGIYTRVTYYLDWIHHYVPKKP
Test: beta-Tryptase inhibition, chromogenic enzyme assay (substrate S2366, read at 405 nm)
Assay type: biochemical
Settings: Ki calculated from IC50: Ki=IC50/(1+[Substrate]/Km); 0.5 mM substrate, room temperature; read-out: Tryptase Ki
Summary of the method: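 Recombinant human beta tryptase (yeast-expressed; native lung enzyme also used), 50 ng/mL final, with 0.5 mM (2×Km) chromogenic substrate S2366; 30 min in the dark, room temperature, read at 405 nm. Compounds at 0.01-10 μM in duplicate for IC50; Ki=IC50/(1+[S]/Km).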

In order of rising Ki:
1. COCCn1cc(C(=O)N2CCC(c3cc(CN)ccc3F)CC2)c2c(-c3ccncc3)cccc21 [Example 56, [4-(5-Aminomethyl-2-fluoro-phenyl)-piperidin-1-yl]-[1-(2-methoxy-ethyl)-4-pyridin-4-yl-1H-indol-3-yl]-methanone]  9 nM
2. COCCn1cc(C(=O)N2CCC(c3cc(CN)ccc3F)CC2)c2c(-c3ccnn3C)cccc21 [Example 89, [4-(5-Aminomethyl-2-fluoro-phenyl)-piperidin-1-yl]-[1-(2-methoxy-ethyl)-4-(2-methyl-2H-pyrazol-3-yl)-1H-indol-3-yl]-methanone dihydrochloride]  11 nM
3. COCCn1cc(C(=O)N2CCC(c3cc(CN)ccc3F)CC2)c2c(-c3cncc(F)c3)cccc21 [Example 84, [4-(5-Aminomethyl-2-fluoro-phenyl)-piperidin-1-yl]-[4-(5-fluoro-pyridin-3-yl)-1-(2-methoxy-ethyl)-1H-indol-3-yl]-methanone dihydrochloride]  22 nM
4. COCCn1cc(C(=O)N2CCC(c3cc(CN)ccc3F)CC2)c2c(-c3ccccn3)cccc21 [Example 74, [4-(5-Aminomethyl-2-fluoro-phenyl)-piperidin-1-yl]-[1-(2-methoxy-ethyl)-4-pyridin-2-yl-1H-indol-3-yl]-methanone dihydrochloride]  26 nM

Same assay, conditions: Tryptase Ki (nM), Ki calculated from IC50: Ki=IC50/(1+[Substrate]/Km); 0.5 mM substrate, room temperature

In order of rising Ki:
1. COCCn1cc(C(=O)N2CCC(c3cc(CN)ccc3F)CC2)c2c(C(=O)N3CCCC3)cccc21 [Example 108, [4-(5-Aminomethyl-2-fluoro-phenyl)-piperidin-1-yl]-[1-(2-methoxy-ethyl)-4-(pyrrolidine-1-carbonyl)-1H-indol-3-yl]-methanone hydrochloride]  15 nM
2. Cc1cccc2c(C(=O)N3CCC(c4cc(CN)ccc4F)CC3)cn(CCO)c12 [Example 20, [4-(5-Aminomethyl-2-fluoro-phenyl)-piperidin-1-yl]-[1-(2-hydroxy-ethyl)-7-methyl-1H-indol-3-yl]-methanone hydrochloride]  19 nM
3. COCCn1cc(C(=O)N2CCC(c3cc(CN)ccc3F)CC2)c2c(C(=O)N3CCCCC3)cccc21 [Example 94, [4-(5-Aminomethyl-2-fluoro-phenyl)-piperidine-1-yl]-[1-(2-methoxy-ethyl)-4-(piperidine-1-carbonyl)-1H-indol-3-yl]-methanone hydrochloride]  21 nM
4. COCCn1cc(C(=O)N2CCC(c3cc(CN)ccc3F)CC2)c2c(NC(=O)c3cncnc3)cccc21 [Example 102, Pyrimidine-5-carboxylic acid [3-[4-(5-aminomethyl-2-fluoro-phenyl)-piperidine-1-carbonyl]-1-(2-methoxy-ethyl)-1H-indol-4-yl]-amide hydrochloride]  22 nM
5. Cc1cccc2c(C(=O)N3CCC(c4cc(CN)ccc4F)CC3)cn(CCOCCO)c12 [Example 21, [4-(5-Aminomethyl-2-fluoro-phenyl)-piperidin-1-yl]-{1-[2-(2-hydroxy-ethoxy)-ethyl]-7-methyl-1H-indol-3-yl}-methanone hydrochloride]  28 nM
6. COCCn1cc(C(=O)N2CCC(c3cc(CN)ccc3F)CC2)c2c(C(=O)N3CCOCC3)cccc21.Cl [Example 59, [3-[4-(5-Aminomethyl-2-fluoro-phenyl)-piperidine-1-carbonyl]-1-(2-methoxy-ethyl)-1H-indol-4-yl]-morpholin-4-yl-methanone hydrochloride]  32 nM
7. COCCn1cc(C(=O)N2CCC(c3cc(CN)ccc3F)CC2)c2c(OC(C)C)cccc21 [Example 68, [4-(5-Aminomethyl-2-fluoro-phenyl)-piperidin-1-yl]-[4-isopropoxy-1-(2-methoxy-ethyl)-1H-indol-3-yl]-methanone hydrochloride]  35 nM
8. COCCn1cc(C(=O)N2CCC(c3cc(CN)ccc3F)CC2)c2cccc(OC(F)(F)F)c21 [Example 1, [4-(5-Aminomethyl-2-fluoro-phenyl)-piperidin-1-yl]-[1-(2-methoxy-ethyl)-7-trifluoromethoxy-1H-indol-3-yl]-methanone hydrochloride]  47 nM
9. COCCn1cc(C(=O)N2CCC(c3cc(CN)ccc3F)CC2)c2c(-c3ccc(F)cc3)cccc21 [Example 71, [4-(5-Aminomethyl-2-fluoro-phenyl)-piperidin-1-yl]-[4-(4-fluoro-phenyl)-1-(2-methoxy-ethyl)-1H-indol-3-yl]-methanone hydrochloride]  49 nM
10. COCCn1cc(C(=O)N2CCC(c3cc(CN)ccc3F)CC2)c2c(OC(F)(F)F)cccc21 [Example 54, [4-(5-Aminomethyl-2-fluoro-phenyl)-piperidin-1-yl]-[1-(2-methoxy-ethyl)-4-trifluoromethoxy-1H-indol-3-yl]-methanone hydrochloride]  96 nM
11. COCCn1cc(C(=O)N2CCC(c3cc(CN)ccc3F)CC2)c2c(NS(=O)(=O)c3cn(C)cn3)cccc21 [Example 105, 1-Methyl-1H-imidazole-4-sulfonic acid [3-[4-(5-aminomethyl-2-fluoro-phenyl)-piperidine-1-carbonyl]-1-(2-methoxy-ethyl)-1H-indol-4-yl]-amide hydrochloride]  100 nM
12. COCCn1cc(C(=O)N2CCC(c3cc(CN)ccc3F)CC2)c2c(Br)cccc21 [Example 48, [4-(5-Aminomethyl-2-fluoro-phenyl)-piperidin-1-yl]-[4-bromo-1-(2-methoxy-ethyl)-1H-indol-3-yl]-methanone hydrochloride]  125 nM
13. Cc1cccc2c(C(=O)N3CCC(c4cc(CN)ccc4F)CC3)cn(CCCN3CCOCC3)c12 [Example 7, [4-(5-Aminomethyl-2-fluoro-phenyl)-piperidin-1-yl]-[7-methyl-1-(3-morpholin-4-yl-propyl)-1H-indol-3-yl]-methanone hydrochloride]  139 nM
14. COCCn1cc(C(=O)N2CCC(c3cc(CN)ccc3C(F)F)CC2)c2cccc(C)c21 [Example 9, [4-(5-Aminomethyl-2-difluoromethyl-phenyl)-piperidin-1-yl]-[1-(2-methoxy-ethyl)-7-methyl-1H-indol-3-yl]-methanone hydrochloride]  203 nM
15. CNc1cccc2c1c(C(=O)N1CCC(c3cc(CN)ccc3F)CC1)cn2CCOC [Example 76, [4-(5-Aminomethyl-2-fluoro-phenyl)-piperidin-1-yl]-[4-methylamino-1-(2-methoxy-ethyl)-1H-indol-3-yl]-methanone hydrochloride]  211 nM
16. Cc1cccc2c(C(=O)N3CCC(c4cccc(CN)c4)CC3)cn(CCN3CCOCC3)c12 [Example 2, [4-(3-Aminomethyl-phenyl)-piperidin-1-yl]-[7-methyl-1-(2-morpholin-4-yl-ethyl)-1H-indol-3-yl]-methanone hydrochloride]  234 nM
17. CC(C)(O)CCn1cc(C(=O)N2CCC(c3cc(CN)ccc3F)CC2)c2ccccc21 [Example 50, [4-(5-Aminomethyl-2-fluoro-phenyl)-piperidin-1-yl]-[1-(3-hydroxy-3-methyl-butyl)-1H-indol-3-yl]-methanone hydrochloride]  241 nM
18. NCc1ccc(F)c(C2CCN(C(=O)c3cn4c5c(cccc35)OCC4)CC2)c1 [Example 49, [4-(5-Aminomethyl-2-fluoro-phenyl)-piperidin-1-yl]-(2,3-dihydro-pyrrolo[1,2,3-de]-1,4-benzoxazin-6-yl)-methanone hydrochloride]  291 nM
19. COCCn1cc(C(=O)N2CCC(c3cccc(CN)c3F)CC2)c2cccc(C)c21 [Example 117, [4-(3-Aminomethyl-2-fluoro-phenyl)-piperidin-1-yl]-[1-(2-methoxy-ethyl)-7-methyl-1H-indol-3-yl]-methanone hydrochloride]  756 nM
20. NCc1ccc(F)c(C2CCN(C(=O)c3cn(CCOC(F)(F)F)c4cccc(Br)c34)CC2)c1 [Example 79, 4-(5-Aminomethyl-2-fluoro-phenyl)-piperidin-1-yl]-[4-bromo-1-(2-trifluoromethoxy-ethyl)-1H-indol-3-yl]-methanone hydrochloride]  935 nM

With `COCCn1cc(C(=O)N2CCC(c3cc(CN)ccc3F)CC2)c2c(OC)cccc21` [Example 47, [4-(5-Aminomethyl-2-fluoro-phenyl)-piperidin-1-yl]-[4-methoxy-1-(2-methoxy-ethyl)-1H-indol-3-yl]-methanone hydrochloride] the Ki was 56 nM and 59 nM.
